Target: T1, Ba/F3-FL-TYK2-P760L cells (Homo sapiens, UniProt P29597, P760L, cells depend on it)
T1 construct: BaF3-FL-T2P760L (nM)
Test: Anti-proliferative assay, Ba/F3-FL-TYK2-P760L cells (Cell-Titer Glo)
Type: cell-based
Details: 72 h, read-out: BaF3-FL-T2P760L IC50
Experimental: Anti-Proliferative Assay Dimerization domain of Tel protein fused with JAK kinase domain was permanently transduced into Ba/F3 cells, whose proliferation is dependent on JAK activity in the absence of IL-3 induction. These engineered Ba/F3 cells (Ba/F3-FL-TYK2-[…], Ba/F3-TEL-TYK2 and Ba/F3-TEL-JAK2) were used to monitor JAK inhibitory activities of the compounds in the cellular. […] Cells were seeded at 2000/well of white flat bottom 96-well plates. The well containing medium only was used as background control. After 24 h growth, cells were treated with compounds. The test compounds were dissolved in DMSO to a stock concentration of 20 mM. 3-fold serially diluted compounds for 9 concentrations with top concentration of 20 μM was added into the each well. […] The cells continued to grow at 37° C. in 5% CO2 for 72 h after compound treatment. The viability was measured by cellular ATP determination using the Cell-Titer Glo luciferase reagent (Promega). The Luminescence value was recorded by a multi-label reader Envision (PerkinElmer).

T1 sequence (P29597 whole entry P760L): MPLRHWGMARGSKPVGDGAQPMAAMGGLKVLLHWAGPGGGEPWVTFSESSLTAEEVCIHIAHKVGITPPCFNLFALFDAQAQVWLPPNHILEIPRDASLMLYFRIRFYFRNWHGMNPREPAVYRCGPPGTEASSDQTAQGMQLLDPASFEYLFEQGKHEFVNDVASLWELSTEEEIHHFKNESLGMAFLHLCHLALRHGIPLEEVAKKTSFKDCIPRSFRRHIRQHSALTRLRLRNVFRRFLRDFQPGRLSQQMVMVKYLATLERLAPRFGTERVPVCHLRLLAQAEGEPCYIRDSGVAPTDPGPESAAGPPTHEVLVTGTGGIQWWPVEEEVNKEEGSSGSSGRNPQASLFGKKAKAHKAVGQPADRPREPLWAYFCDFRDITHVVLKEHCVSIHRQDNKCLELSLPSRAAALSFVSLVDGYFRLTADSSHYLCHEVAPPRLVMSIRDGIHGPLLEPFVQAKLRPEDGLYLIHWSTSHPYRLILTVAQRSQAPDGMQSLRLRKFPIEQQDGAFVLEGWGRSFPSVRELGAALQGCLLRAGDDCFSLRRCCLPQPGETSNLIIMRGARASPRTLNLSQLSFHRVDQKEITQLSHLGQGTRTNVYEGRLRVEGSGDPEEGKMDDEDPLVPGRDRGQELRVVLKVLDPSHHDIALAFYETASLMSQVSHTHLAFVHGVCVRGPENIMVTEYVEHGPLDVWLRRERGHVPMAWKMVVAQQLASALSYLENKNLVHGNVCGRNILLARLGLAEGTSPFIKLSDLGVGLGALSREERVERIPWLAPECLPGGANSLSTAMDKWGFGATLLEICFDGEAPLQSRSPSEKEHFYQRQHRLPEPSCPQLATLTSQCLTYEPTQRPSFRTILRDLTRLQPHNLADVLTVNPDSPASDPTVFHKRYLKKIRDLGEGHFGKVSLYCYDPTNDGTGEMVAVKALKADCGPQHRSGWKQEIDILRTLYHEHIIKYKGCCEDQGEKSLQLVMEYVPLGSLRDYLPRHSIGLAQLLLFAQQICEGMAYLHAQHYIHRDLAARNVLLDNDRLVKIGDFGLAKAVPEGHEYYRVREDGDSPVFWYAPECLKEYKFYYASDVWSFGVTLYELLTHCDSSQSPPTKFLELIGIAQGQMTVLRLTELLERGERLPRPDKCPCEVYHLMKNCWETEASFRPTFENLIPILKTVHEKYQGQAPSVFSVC

Row | Structure (SMILES) | GI50 [nM]
1 | [2H]C([2H])([2H])NC(=O)c1cnc(Nc2cnn(C3CCOC3)c2)nc1Nc1cccc(-c2ncn(C)n2)c1OC (centres unmarked) [Example 31, 4-((2-Methoxy-3-(1-methyl-1H-1,2,4-triazol-3-yl)phenyl)amino)-N-(methyl-d3)-2-((1-(tetrahydrofuran-3-yl)-1H-pyrazol-4-yl)amino)pyrimidine-5-carboxamide] | 303
2 | CNC(=O)c1nnc2cc1Nc1cc(cc(-c3ncn(C)n3)c1OC)CN(C)Cc1cccc(n1)N2 [Example 32, 10-Methoxy-N,15-dimethyl-11-(1-methyl-1,2,4-triazol-3-yl)-2,4,5,8,15,21-hexazatetracyclo[15.3.1.13,7.19,13]tricosa-1(21),3(23),4,6,9,11,13(22),17,19-nonaene-6-carboxamide] | 856
3 | CNC(=O)c1cnc2nc1Nc1cc(cc(-c3ncn(C)n3)c1OC)COCc1cc(cc(C(F)(F)F)c1)N2 [Example 37, 10-Methoxy-N-methyl-11-(1-methyl-1H-1,2,4-triazol-3-yl)-19-(trifluoromethyl)-15-oxa-2,4,8,23-tetraazatetracyclo[15.3.1.1^{3,7}.1^{9,13}]tricosa-1(20),3,5,7(23),9(22),10,12,17(21),18-nonaene-6-carboxamide] | 988
4 | CNC(=O)c1cnc(Nc2ccc(F)cc2)nc1Nc1coc2ccn(C)c(=O)c12 [Example 38, 2-((4-Fluorophenyl)amino)-N-methyl-4-((5-methyl-4-oxo-4,5-dihydrofuro[3,2-c]pyridin-3-yl)amino)pyrimidine-5-carboxamide] | 831
5 | [2H]C([2H])([2H])NC(=O)c1cnc(NC(=O)C2CC2)cc1Nc1cnn2c1C(=O)N(CC(F)(F)F)CC2 [Example 46, 6-(Cyclopropanecarboxamido)-N-(methyl-d3)-4-((4-oxo-5-(2,2,2-trifluoroethyl)-4,5,6,7-tetrahydropyrazolo[1,5-a]pyrazin-3-yl)amino) nicotinamide] | 372
6 | COC(=O)c1cnc(NC(=O)C2CC2)cc1Nc1cnc2ccn(CC(F)(F)F)c(=O)n12 [Example 48, Methyl 6-(cyclopropanecarboxamido)-4-((5-oxo-6-(2,2,2-trifluoroethyl)-5,6-dihydroimidazo[1,2-c]pyrimidin-3-yl)amino)nicotinate] | 3810
7 | CNC(=O)c1cnc(NC(=O)C2CC2)cc1Nc1cn(C)c2ccn(C(C)C)c(=O)c12 [Example 50, 6-(Cyclopropanecarboxamido)-4-((5-isopropyl-1-methyl-4-oxo-4,5-dihydro-1H-pyrrolo[3,2-c]pyridin-3-yl)amino)-N-methylnicotinamide] | 371
8 | CCCn1ncc2ccc(Nc3cc(NC(=O)C4CC4)ncc3C(=O)NC)c(OC)c21 [Example 51, 6-(Cyclopropanecarboxamido)-4-((7-methoxy-1-propyl-1H-indazol-6-yl)amino)-N-methylnicotinamide] | 80.2
9 | [2H]C([2H])([2H])NC(=O)c1cnc(NC(=O)C2CC2)cc1Nc1nn(CCOC)c2ccn(CC(F)(F)F)c(=O)c12 [Example 54, 6-(Cyclopropanecarboxamido)-4-((1-(2-methoxyethyl)-4-oxo-5-(2,2,2-trifluoroethyl)-4,5-dihydro-1H-pyrazolo[4,3-c]pyridin-3-yl)amino)-N-(methyl-d3)nicotinamide] | 1090
10 | CNC(=O)c1cnc(Nc2ccc(F)cn2)cc1Nc1cccc(C(F)(F)F)c1OC [Example 55, 6-((5-Fluoropyridin-2-yl)amino)-4-((2-methoxy-3-(trifluoromethyl)phenyl)amino)-N-methylnicotinamide] | 627
11 | CNC(=O)c1cnc(Nc2ccc(F)cn2)cc1Nc1cccc(C2(F)CC2)c1OC [Example 56, 4-((3-(1-Fluorocyclopropyl)-2-methoxyphenyl)amino)-6-((5-fluoropyridin-2-yl)amino)-N-methylnicotinamide] | 285

Further lines, results first:

Row | GI50 [nM] | Structure (SMILES)
12 | 1930 | [2H]C([2H])([2H])NC(=O)c1cnc(Nc2cc(C)c(F)cn2)nc1Nc1cccc(-c2ncn(C)n2)c1OC [Example 59, 2-((5-Fluoro-4-methylpyridin-2-yl)amino)-4-((2-methoxy-3-(1-methyl-1H-1,2,4-triazol-3-yl)phenyl)amino)-N-(methyl-d3)pyrimidine-5-carboxamide]
13 | 1410 | [2H]C([2H])([2H])NC(=O)c1cnc(Nc2ccn(C)n2)nc1Nc1cccc(-c2ncn(C)n2)c1OC [Example 60, 4-((2-Methoxy-3-(1-methyl-1H-1,2,4-triazol-3-yl)phenyl)amino)-N-(methyl-d3)-2-((1-methyl-1H-pyrazol-3-yl)amino)pyrimidine-5-carboxamide]
14 | 3510 | [2H]C([2H])([2H])NC(=O)c1cnc(Nc2ccc(C)nn2)nc1Nc1cccc(-c2ncn(C)n2)c1OC [Example 61, 4-((2-Methoxy-3-(1-methyl-1H-1,2,4-triazol-3-yl)phenyl)amino)-N-(methyl-d3)-2-((6-methylpyridazin-3-yl)amino)pyrimidine-5-carboxamide]
15 | 1180 | [2H]C([2H])([2H])NC(=O)c1cnc(Nc2cccc(C(F)(F)F)n2)nc1Nc1cccc(-c2ncn(C)n2)c1OC [Example 62, 4-((2-Methoxy-3-(1-methyl-1H-1,2,4-triazol-3-yl)phenyl)amino)-N-(methyl-d3)-2-((6-(trifluoromethyl)pyridin-2-yl)amino)pyrimidine-5-carboxamide]
16 | 796 | [2H]C([2H])([2H])NC(=O)c1cnc(Nc2ccc(F)cc2F)nc1Nc1cccc(-c2ncn(C)n2)c1OC [Example 63, 2-((2,4-Difluorophenyl)amino)-4-((2-methoxy-3-(1-methyl-1H-1,2,4-triazol-3-yl)phenyl)amino)-N-(methyl-d3)pyrimidine-5-carboxamide]
17 | 2040 | CNC(=O)c1cnc(NC(=O)C2CC2(F)F)nc1Nc1cccc(-c2ncn(C)n2)c1OC (centres unmarked) [Example 64, 2-(2,2-Difluorocyclopropane-1-carboxamido)-4-((2-methoxy-3-(1-methyl-1H-1,2,4-triazol-3-yl)phenyl)amino)-N-methylpyrimidine-5-carboxamide]
18 | 7980 | [2H]C([2H])([2H])NC(=O)c1nnc2cc1Nc1cc(cc(-c3ccc(F)cc3)c1OC)COCc1nc(ccc1F)N2 [Example 73, 18-Fluoro-11-(4-fluorophenyl)-10-methoxy-N-(methyl-d3)-15-oxa-2,4,5,8,21-pentaazatetracyclo[15.3.1.1^{3,7}.1^{9,13}]tricosa-1(20),3,5,7(23),9(22),10,12,17(21),18-nonaene-6-carboxamide]
19 | 213 | [2H]C([2H])([2H])NC(=O)c1nnc2cc1Nc1cc(cc(-c3ncc(F)cn3)c1OC)COCc1nc(ccc1F)N2 [Example 80, 18-Fluoro-11-(5-fluoropyrimidin-2-yl)-10-methoxy-N-(methyl-d3)-15-oxa-2,4,5,8,21-pentaazatetracyclo[15.3.1.1^{3,7}.1^{9,13}]tricosa-1(20),3,5,7(23),9(22),10,12,17(21),18-nonaene-6-carboxamide]
20 | 330 | [2H]C([2H])([2H])NC(=O)c1cnc2nc1Nc1cc(cc(-c3ncn(C)n3)c1OC)COCc1cc(F)cc(n1)N2 [Example 81, 19-Fluoro-10-methoxy-N-(methyl-d3)-11-(1-methyl-1H-1,2,4-triazol-3-yl)-15-oxa-2,4,8,21,23-pentaazatetracyclo[15.3.1.1^{3,7}.1^{9,13}]tricosa-1(21),3,5,7(23),9(22),10,12,17,19-nonaene-6-carboxamide]
